{
  "source": "patent US6797282B2",
  "about": "“Combination progestin oral contraceptive regimen” (Ortho-McNeil Pharmaceutical, Inc., priority 1997, dated 2004)",
  "origin": "cited, not measured here",
  "test_system": "endometrium",
  "conditions": "primates; Wilborn et al 1984",
  "data": [
    {"smiles": "C#C[C@]1(OC(C)=O)CC[C@H]2[C@@H]3CCC4=CC(=NO)CC[C@@H]4[C@H]3CC[C@@]21CC", "note": "(mixture of isomers) [Norgestimate]", "values": [
      {"measurement": "effect on endometrium in comparison to other progestins", "value": "endometrial sparing effect"}
    ]}
  ]
}
